Experimental data reported in ChEMBL document CHEMBL1140814 (Bioorg Med Chem Lett, 2008).

Tests used:
[1] = biological target: T1, Muscarinic acetylcholine receptor M4 (Homo sapiens, UniProt P08173); assay: Displacement of [3H]NMS from human cloned muscarinic M4 receptor expressed in CHO cells; assay type: cell-based
T1 sequence (P08173 whole entry): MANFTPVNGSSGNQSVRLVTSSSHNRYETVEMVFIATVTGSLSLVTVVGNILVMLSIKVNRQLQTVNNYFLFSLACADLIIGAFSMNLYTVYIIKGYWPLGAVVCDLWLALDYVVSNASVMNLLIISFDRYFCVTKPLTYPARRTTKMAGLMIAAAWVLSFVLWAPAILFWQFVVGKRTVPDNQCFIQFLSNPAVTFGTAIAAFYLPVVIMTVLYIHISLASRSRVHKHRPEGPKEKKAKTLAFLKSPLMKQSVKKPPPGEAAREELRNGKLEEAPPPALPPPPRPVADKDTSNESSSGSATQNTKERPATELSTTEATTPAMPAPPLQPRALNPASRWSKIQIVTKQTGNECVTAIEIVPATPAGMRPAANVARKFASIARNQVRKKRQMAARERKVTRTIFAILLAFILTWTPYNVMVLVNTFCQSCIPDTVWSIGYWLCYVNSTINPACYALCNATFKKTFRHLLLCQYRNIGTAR

[2] = Intrinsic activity at muscarinic M2 receptor in guinea-pig stimulated left atria assessed as ratio of agonist activity to activity of arecaidine propargyl ester; assay type: functional, Cavia porcellus
[3] = biological target: T2, Muscarinic acetylcholine receptor M2 (Homo sapiens, UniProt P08172); assay: Displacement of [3H]NMS from human cloned muscarinic M2 receptor expressed in CHO cells; assay type: cell-based
T2 sequence (P08172 whole entry): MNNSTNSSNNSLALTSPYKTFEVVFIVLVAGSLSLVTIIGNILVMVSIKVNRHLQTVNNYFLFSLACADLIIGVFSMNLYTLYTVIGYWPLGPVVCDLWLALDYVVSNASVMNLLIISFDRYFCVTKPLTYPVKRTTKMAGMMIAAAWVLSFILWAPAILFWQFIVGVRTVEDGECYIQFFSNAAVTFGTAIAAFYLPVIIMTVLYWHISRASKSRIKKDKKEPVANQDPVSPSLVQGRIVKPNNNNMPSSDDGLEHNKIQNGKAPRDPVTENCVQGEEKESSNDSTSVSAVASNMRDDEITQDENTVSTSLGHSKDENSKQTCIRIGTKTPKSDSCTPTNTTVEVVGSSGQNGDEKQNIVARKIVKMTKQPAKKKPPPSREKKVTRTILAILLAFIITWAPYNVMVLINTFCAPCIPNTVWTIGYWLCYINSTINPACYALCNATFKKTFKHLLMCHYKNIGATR

[4] = biological target: Muscarinic acetylcholine receptor M3 (Cavia porcellus) (UniProt Q8VH26); assay: Intrinsic activity at muscarinic M3 receptor in guinea-pig ileum assessed as ratio of agonist activity to activity of arecaidine propargyl ester; assay type: functional, tissue-based
Sequence of Muscarinic acetylcholine receptor M3 (Cavia porcellus) (Q8VH26 1-587): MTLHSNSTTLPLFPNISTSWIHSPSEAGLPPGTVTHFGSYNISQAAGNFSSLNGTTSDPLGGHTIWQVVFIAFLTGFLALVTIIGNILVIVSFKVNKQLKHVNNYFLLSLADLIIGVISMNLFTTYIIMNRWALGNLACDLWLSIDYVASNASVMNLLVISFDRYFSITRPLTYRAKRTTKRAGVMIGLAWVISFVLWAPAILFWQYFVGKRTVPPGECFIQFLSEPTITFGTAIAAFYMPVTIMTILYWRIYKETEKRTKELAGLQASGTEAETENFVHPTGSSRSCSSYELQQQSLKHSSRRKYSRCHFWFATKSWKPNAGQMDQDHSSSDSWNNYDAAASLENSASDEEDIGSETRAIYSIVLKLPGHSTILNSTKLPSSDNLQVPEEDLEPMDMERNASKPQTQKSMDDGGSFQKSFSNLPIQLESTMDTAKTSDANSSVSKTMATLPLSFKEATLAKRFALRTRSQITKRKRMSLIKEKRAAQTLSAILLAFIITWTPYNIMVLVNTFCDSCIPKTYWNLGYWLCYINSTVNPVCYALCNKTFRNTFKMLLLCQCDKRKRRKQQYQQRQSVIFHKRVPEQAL

[5] = Intrinsic activity at muscarinic M4 receptor in guinea-pig lung strips assessed as ratio of agonist activity to activity of arecaidine propargyl ester; assay type: functional, Cavia porcellus
[6] = biological target: T3, Muscarinic acetylcholine receptor M5 (Homo sapiens, UniProt P08912); assay: Displacement of [3H]NMS from human cloned muscarinic M5 receptor expressed in CHO cells; assay type: cell-based
T3 sequence (P08912 whole entry): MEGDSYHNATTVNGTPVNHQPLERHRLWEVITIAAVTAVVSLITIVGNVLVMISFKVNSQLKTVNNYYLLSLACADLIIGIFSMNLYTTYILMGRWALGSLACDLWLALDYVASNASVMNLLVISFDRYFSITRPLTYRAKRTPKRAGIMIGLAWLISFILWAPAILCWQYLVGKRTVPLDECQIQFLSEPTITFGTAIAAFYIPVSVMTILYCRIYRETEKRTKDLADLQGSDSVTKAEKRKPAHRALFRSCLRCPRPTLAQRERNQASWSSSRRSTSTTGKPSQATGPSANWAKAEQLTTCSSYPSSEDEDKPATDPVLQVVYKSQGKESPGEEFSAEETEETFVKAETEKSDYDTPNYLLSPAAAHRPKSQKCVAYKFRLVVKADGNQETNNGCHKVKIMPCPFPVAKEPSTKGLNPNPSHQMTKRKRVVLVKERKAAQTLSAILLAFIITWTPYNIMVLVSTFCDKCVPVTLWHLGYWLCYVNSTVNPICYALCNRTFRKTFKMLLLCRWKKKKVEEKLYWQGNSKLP

[7] = Intrinsic activity at muscarinic M1 receptor in rabbit stimulated vas deferens assessed as ratio of agonist activity to activity of McN-A-343; assay type: functional, Oryctolagus cuniculus
[8] = Antagonist activity at muscarinic M1 receptor in rabbit vas deferens up to 10 uM; assay type: functional, Oryctolagus cuniculus

Compound	Ki [1]	Intrinsic activity [2]	pD2 [2]	Ki [3]	pD2 [4]	Intrinsic activity [5]	pD2 [5]	Ki [6]	Intrinsic activity [7]	pD2 [7]	Intrinsic activity [4]	pD2 [8]
C[C@H]1COC[C@H](C[N+](C)(C)C)O1.[I-]	45.7 µM	0.9	6.18	5.25 µM	6.26	0.77	5.79					
CC1COCC(C[N+](C)(C)C)O1.[I-] (racemic; form 1)	11.5 µM	1		2.09 µM				7.76 µM	1	5.65		
CC1OC(C[N+](C)(C)C)CC1O (racemic)		1	6.72		7.29						1	
C[C@@H]1COC[C@@H](C[N+](C)(C)C)O1.[I-]	> 100 µM	0.62	5.27	61.7 µM	4.54	0.42	5.22	87.1 µM				
C[C@@H]1COC[C@H](C[N+](C)(C)C)O1.[I-]	69.2 µM	1		6.92 µM	6.53			44.7 µM				<5
CC1COCC(C[N+](C)(C)C)O1 (racemic; form 1)					7.34							
C[C@H]1COC[C@@H](C[N+](C)(C)C)O1.[I-]	9.77 µM			1.26 µM	7.65	1		4.57 µM	1	6.78		
CC1COCC(C[N+](C)(C)C)O1.[I-] (racemic; form 2)	87.1 µM			4.9 µM				67.6 µM		5.08		
